From patent EP0377489A2, “Purified C5a receptor from human polymorphonuclear leukocytes” (MERCK & CO. INC., priority 1989, dated 1990)

Columns and labels:
solubilized C5a receptor = experiment: Inhibition of C5a binding to solubilized or purified receptor by nucleotides; design: species or system human
Method: -All assays, except where noted, were performed at 4°C, with freshly thawed membranes or freshly prepared soluble receptor. To assay intact membranes, assay buffer (50 mM HEPES, pH 7.2, containing 1 mM CaCl₂, 5 mM MgCl₂, 0.1 mM PMSF, 0.1% bacitracin, and 0.5% bovine serum albumin), ¹²⁵I-C5a (typically 0.1 ng), and membrane (typically 0.5 µg) were added sequentially to a final volume of 200 µl. After incubation for 60-90 minutes 2 ml of assay buffer was added, the solution mixed, and the sample filtered through either a Whatman® GF/C filter treated with 0.33% polyethyleneimine or an untreated Millipore®GVWP filter. […] The filters were then counted in a Packard 460 γ-counter. Nonspecific backgrounds were determined by including 20 ng or more of unlabled C5a in the incubation mixture. To assay soluble receptor, assay buffer, solubilized membrane (typically 5 µl) and ¹²⁵I-C5a were mixed to a final volume of 200 µl and incubated for 15-30 minutes, at which time 500 µl of 0.1% bovine γ-globulin and 500 µl of 30% polyethylene glycol were added sequentially with vigorous mixing. After an additional 5 minutes, the sample was filtered and washed with 2 ml of a 9% PEG solution. (Precipitation is essentially complete in less than one minute and the precipitated receptor-­ligand complex is stable for more than 30 minutes.)
As shown in Figure 5 membranes were solubilized in digitonin and assayed for binding activity in the presence of increasing amounts of GTPγS.

[1] = test system: C5a receptor from PMN membranes; experiment: Release of binding sites from the membrane: total binding activity of detergent extracts at saturation compared with intact membrane; design: species or system human
Method: In additional experiments (results not shown) the ability of digitonin and β-dodecyl maltoside to release binding sites from the membrane was determined by comparing the total binding activity of the extracts, at saturation, with that of an equivalent amount of intact membrane. In the two experiments in which a direct comparison was made the efficiencies of the detergents appeared to be similar, both solubilized 30-35% of the receptors initially present in the membrane. However, over the course of the work we did observe variability from experiment to experiment and it is our impression that, on average, digitonin was more efficient than β-dodecyl maltoside (for an example, see Table I).

| receptors initially present in the membrane solubilized [1] | SMILES | maximum inhibition of C5a binding (solubilized C5a receptor; digitonin solubilized membranes) | IC50 (solubilized C5a receptor; inhibition of C5a binding, digitonin solubilized membranes, read-out: IC₅₀) | inhibition of binding of C5a to the purified receptor (solubilized C5a receptor; purified receptor, 3 different preparations) |
| --- | --- | --- | --- | --- |
| – | Nc1nc2c(ncn2[C@@H]2O[C@H](COP(=O)(O)OP(=O)(O)OP(O)(O)=S)[C@@H](O)[C@H]2O)c(=O)[nH]1 [GTPγS] | 85% | 10 nM | 27-50% |
| 30-35% | CCCCCCCCCCCCO[C@@H]1O[C@H](CO)[C@@H](O[C@H]2O[C@H](CO)[C@@H](O)[C@H](O)[C@H]2O)[C@H](O)[C@H]1O [β-Dodecyl maltoside] | – | – | – |
